Key:
[1] = test system: Human foetal foreskin fibroblasts--HFSF; test: In vitro cytostatic cytotoxic effects, HFSF (non-malignant); assay type: cell-based; conditions: I 40 ng, 37° C.
Description: (§1) "In vitro" cytostatic cytotoxic effects with Hypoxis rooperi extracts (example 2(e)(i)) and Compound I Four different cell culture types were used:
iv. Human foetal foreskin fibroblasts--HFSF (non-malignant)
(§2) Procedure: Trypsinized cells were harvested into MEM and suitably diluted to supply about 2×10^5 cells per cm^3. A culture flask containing 4,5 cm^3 of culture medium was seeded with 0.5 cm^3 of the prepared cell suspension. This cell culture was then incubated at 37° C. for 24 hours before the test substances dissolved in 0.5 cm^3 of the culture medium were added.

[2] = test system: Rabbits; test: Acute toxicity evaluation of (I), rabbits; assay type: in vivo, rabbit; conditions: intravenous; for Mortality (Range %): dead/treated
Description: (§3) Solutions of (I) in distilled water were prepared with the required concentration. Administered volumes were kept constant at the rate of 10 cm^3 per kg. In each case equal numbers of males and females were treated with a single dose. All animals were observed over 7 days for signs of toxic and/or pharmaco-dynamic effects.
(§4) A necropsy was performed on all surviving animals.

[3] = test system: pregnant mouse foeti; test: Foetotoxic-teratogenic effect of (I) in pregnant mice; assay type: in vivo, mouse (Swiss Webster); conditions: for No of foeti / No of implantation sites / No of live foeti / No of malformations: 6 mice
Description: Two groups of six fully impregnated mice (Swiss Webster offspring) were treated orally with aqueous solutions of (I) once per day (10 ml/kg) starting day 1 through to day 8 of the gestation period. On day 20 of the pregnancies the mice were lightly anaethetised with diethyl ether and the uterus exposed by caesarian section. The total number of implantation sites were counted. All foeti were removed and examined for
(b) macroscopic gross anatomical abnormalities of limbs and head.

[4] = test system: Heha 229; test: In vitro cytostatic cytotoxic effects, Heha 229; assay type: cell-based; conditions: Heha 229, I 40 ng, 37° C.
Description: as §1, §2

[5] = test system: Mouse melacoma--Mel B1-6; test: In vitro cytostatic cytotoxic effects, Mel B1-6; assay type: cell-based; conditions: Mel B1-6, I 40 ng, 37° C.
Description: as §1
ii. Mouse melacoma--Mel B1-6
as §2

[6] = test system: Mouse sarcoma--Ms 52 B; test: In vitro cytostatic cytotoxic effects, MS 52 B; assay type: cell-based; conditions: I 40 ng, 37° C.
Description: as §1
i. Mouse sarcoma--Ms 52 B
as §2

[7] = test system: Mouse; test: Acute toxicity evaluation of (I), mouse; assay type: in vivo; conditions: for Mortality (Range %): dead/treated
Description: as §3, §4

[8] = Acute toxicity evaluation of (I), mouse; assay type: in vivo; conditions: in vivo, ip, mouse, intraperitoneal, dead/treated (range %)
Description: as §3, §4

`OC[C@H]1O[C@@H](Oc2ccc(C#CC/C=C/c3ccc(O[C@@H]4O[C@H](CO)[C@@H](O)[C@H](O)[C@H]4O)c(O)c3)cc2O)[C@H](O)[C@@H](O)[C@@H]1O` [Compound I] gave a Confluency ([1]; 24 hours) of 40%, a Confluency ([1]; 48 hours) of 50% and a Confluency ([1]; 72 hours) of 50%. The Confluency ([1]; 96 hours) was 40%, the “Mortality (Range %)” value ([2]; 50 mg/kg) was 0/2 and the “Mortality (Range %)” value ([2]; 100 mg/kg) was 0/2. For the same compound, the “Remarks: macroscopic lesions” value ([2]; 50 and 100 mg/kg) was “no macropscopic”, the “Remarks: thrombophlebitis at the injection site” value ([2]; 50 and 100 mg/kg) was “No thrombophlebitis” and the “Remarks: visible effects” value ([2]; 50 and 100 mg/kg) was “No visible effects”. For the same compound, the No of foeti ([3]; 20 mg/kg oral) was 52, the “No of implantation sites” value ([3]; 20 mg/kg oral) was 58 and the “No of live foeti” value ([3]; 20 mg/kg oral) was 50. For the same compound, the No of malformations ([3]; 20 mg/kg oral) was 0, the No of foeti ([3]; 100 mg/kg oral) was 49 and the “No of implantation sites” value ([3]; 100 mg/kg oral) was 58. The “No of live foeti” value ([3]; 100 mg/kg oral) was 45, the No of malformations ([3]; 100 mg/kg oral) was 3 (2?) and the “abnormally reduced growth rate of the foeti” value ([3]; any of the treated groups) was “no indications of abnormally reduced growth rate of the foeti”. The teratogenic effects ([3]; at the doses administered) was “unlikely”, the “adverse effects in the treated mother animals” value ([3]; treated mother animals) was “No adverse effects were detected” and the Confluency ([4]; 24 hours) was 50%. It also gave a Confluency ([4]; 48 hours) of 60%, a Confluency ([4]; 72 hours) of 50% and a Confluency ([4]; 96 hours) of 30%. The Confluency ([5]; 24 hours) was 40%, the Confluency ([5]; 48 hours) was 30% and the Confluency ([5]; 72 hours) was 40%. It also gave a Confluency ([5]; 96 hours) of 40%, a Confluency ([5]; 120 hours) of 30% and a Confluency ([6]; 24 hours) of 40%. It also gave a Confluency ([6]; 48 hours) of 20%, a Confluency ([6]; 72 hours) of 20% and a Confluency ([6]; 96 hours) of 20%. The “direct toxic effects (conclusion)” value ([7]; acute toxicity, single dose) was “low degree of direct toxic effects”, the “Mortality (Range %)” value ([7]; mouse, intraperitoneal, 250 mg/kg) was 0/10 and the “Mortality (Range %)” value ([7]; mouse, intraperitoneal, 500 mg/kg) was 0/20. The “Remarks: signs of discomfort” value ([7]; mouse, intraperitoneal, all animals, increasing with dose) was “discomfort”, the “Mortality (Range %)” value ([7]; mouse, oral, 1000 mg/kg) was 0/20 and the “Mortality (Range %)” value ([7]; mouse, oral, 2000 mg/kg) was 0/20. For the same compound, the “Mortality (Range %)” value ([7]; mouse, oral, 4000 mg/kg) was 0/20, the “Remarks: macroscopic lesions” value ([7]; mouse, oral, 1000-4000 mg/kg, any animal) was “No macroscopic” and the “macroscopic lesions on necropsy” value ([7]; surviving animals) was “No macroscopic lesions were observed”. The mortality at 168 h ([8]; 1000 mg/kg) was 16.7% and the mortality at 168 h ([8]; 2000 mg/kg) was 90%.
